Test results reported in US7413851B2, “Nucleophosmin directed diagnostics and therapeutics for multidrug resistant neoplastic disease” (Aurelium Biopharma, Inc., priority 2002, dated 2008).

What was measured:
[1] = test system: antigen-positive E3 cell line; details: cited from earlier work
[2] = test system: hematological tumor cells; test: Nucleophosmin vaccination before injection of hematological tumor cells; type: in vivo; details: mice vaccinated prior to injection of tumor cells vs not vaccinated
E3 target cells = details: cited from earlier work
[3] = anti-CD19 antibody immunoconjugate vs free Ida; read-out: activities; cited from earlier work
NB4 cell line = test: Cytotoxicity of Ara-C, MTT staining of viable cells; type: cell-based; details: 0 to 1 mM, 72 hours
Description: The cytotoxicity of cytosine-β-D-arabinoside (Ara-C) against CEM, HL60 and NB4 cell lines was examined. Cells were seeded in 96 well plates at 1.5×10^4 cells/well in RPMI1640, 10% FBS, 1 mM HEPES or α-MEM, 10% FBS for HL60 and NB4 or CEM, respectively, with varying concentrations of Ara-C (0 to 1 mM). Cytotoxicity was assessed after 72 hours by staining the viable cells with MTT.

For `O=c1[nH]c(=O)n([C@H]2C[C@H](O)[C@@H](CO)O2)cc1F` [FUDR, 5-fluoro-2′-deoxyuridine], the IC50 [1] is listed as 0.4 nM.
For “nucleophosmin: purified full length murine nucleophosmin protein used as vaccine antigen, optionally with adjuvant”, the tumor size [2] was “smaller”.
In the case of `CC(=O)[C@]1(O)Cc2c(O)c3c(c(O)c2[C@@H](O[C@H]2C[C@H](N)[C@H](O)[C@H](C)O2)C1)C(=O)c1ccccc1C3=O` [Ida, Idarubicin], the IC50 (E3 target cells) is listed as 120 nM and the IC50 [3] is listed as 12 nM.
With `Nc1ccn([C@@H]2O[C@H](CO)[C@@H](O)[C@@H]2O)c(=O)n1` [Ara-C, cytosine-β-D-arabinoside] the “cytotoxicity against NB4 (FIG. 14)” value (NB4 cell line) was “resistance”.
